Laboratory results reported in ChEMBL document CHEMBL6103623, “Phenolics and Phenolic Glycosides from Wrightia pubescens and Their Hepatoprotective Activities” (J Nat Prod, 2025).
Calls of active or inactive are those of the source. No cut-off for these calls is given here.

Tests used:
HepG2 [1] = test: Cytotoxicity against human HepG2 cells assessed as reduction in cell viability at 100 uM incubated for 48 hrs by MTT assay; type: toxicity, cell-based; conditions: hepg2, 48 h
HepG2 [2] = test: Hepatoprotective activity against APAP-induced cell injury in human HepG2 cells assessed as increase in survival rate preincubated for 24 hrs followed by APAP addition and measured after 24 hrs by MTT assay; type: functional, cell-based; conditions: dose 6.25-25 µM, time 48.0 hrs
HepG2 [3] = test: Hepatoprotective activity against APAP-induced cell injury in human HepG2 cells assessed as reduction in ALT level at 6.25 to 25 uM preincubated for 24 hrs followed by APAP addition and measured after 24 hrs; type: functional, cell-based; conditions: dose 6.25-25 µM, time 48.0 hrs
HepG2 [4] = test: Hepatoprotective activity against APAP-induced cell injury in human HepG2 cells assessed as reduction in AST level at 6.25 to 25 uM preincubated for 24 hrs followed by APAP addition and measured after 24 hrs; type: functional, cell-based; conditions: dose 6.25-25 µM, time 48.0 hrs
HepG2 [5] = test: Hepatoprotective activity in human HepG2 cells assessed as restoration of APAP-induced inhibition of Bcl-2 expression preincubated for 24 hrs followed by APAP addition and measured after 24 hrs by Western blot analysis; type: functional, cell-based; conditions: dose 6.25-25 µM, time 48.0 hrs
HepG2 [6] = test: Hepatoprotective activity in human HepG2 cells assessed as inhibition of APAP-induced increase in Bax expression preincubated for 24 hrs followed by APAP addition and measured after 24 hrs by Western blot analysis; type: functional, cell-based; conditions: dose 6.25-25 µM, time 48.0 hrs
HepG2 [7] = test: Hepatoprotective activity against APAP-induced human HepG2 cell apoptosis assessed as viable cells at 25 uM incubated for 24 hrs in presence of APAP by Annexin V-FITC/PI staining based flow cytometry (Rvb=62.69%); type: functional; conditions: read-out: Activity
HepG2 [8] = test: Hepatoprotective activity against APAP-induced human HepG2 cell apoptosis assessed as early apoptotic cells at 25 uM incubated for 24 hrs in presence of APAP by Annexin V-FITC/PI staining based flow cytometry (reference value: 25.81%); type: functional
HepG2 [9] = test: Hepatoprotective activity against APAP-induced human HepG2 cell apoptosis assessed as late apoptotic cells at 25 uM incubated for 24 hrs in presence of APAP by Annexin V-FITC/PI staining based flow cytometry (reference value: 11.01%); type: functional
HepG2 [10] = test: Hepatoprotective activity against APAP-induced human HepG2 cell apoptosis assessed as necrotic cells at 25 uM incubated for 24 hrs in presence of APAP by Annexin V-FITC/PI staining based flow cytometry (reference value: 0.49%); type: functional
HepG2 [11] = test: Hepatoprotective activity against APAP-induced cell injury in human HepG2 cells assessed as increase in GSH-Px activity at 6.25 to 25 uM preincubated for 24 hrs followed by APAP addition and measured after 24 hrs; type: functional, cell-based; conditions: dose 6.25-25 µM, time 48.0 hrs
HepG2 [12] = test: Hepatoprotective activity against APAP-induced cell injury in human HepG2 cells assessed as increase in Nrf2 expression at 6.25 to 25 uM preincubated for 24 hrs followed by APAP addition and measured after 24 hrs by Western blot analysis; type: functional, cell-based; conditions: dose 6.25-25 µM, time 48.0 hrs
HepG2 [13] = test: Hepatoprotective activity against APAP-induced cell injury in human HepG2 cells assessed as increase in HO-1 expression at 6.25 to 25 uM preincubated for 24 hrs followed by APAP addition and measured after 24 hrs by Western blot analysis; type: functional, cell-based; conditions: dose 6.25-25 µM, time 48.0 hrs
HepG2 [14] = test: Hepatoprotective activity against APAP-induced cell injury in human HepG2 cells assessed as increase in GPX4 expression at 6.25 to 25 uM preincubated for 24 hrs followed by APAP addition and measured after 24 hrs by Western blot analysis; type: functional, cell-based; conditions: dose 6.25-25 µM, time 48.0 hrs
HepG2 [15] = test: Hepatoprotective activity in human HepG2 cells assessed as reduction in APAP-induced increased in ROS level at 25 uM measured after 24 hrs in presence of APAP by DCF staining based flow cytometry; type: functional, cell-based
HepG2 [16] = test: Hepatoprotective activity against APAP-induced cell injury in human HepG2 cells assessed as reduction in ALT level at 10 uM preincubated for 24 hrs followed by APAP addition and measured after 24 hrs; type: functional, cell-based; conditions: time 48.0 hrs
HepG2 [17] = test: Hepatoprotective activity against APAP-induced cell injury in human HepG2 cells assessed as reduction in AST level at 10 uM preincubated for 24 hrs followed by APAP addition and measured after 24 hrs; type: functional, cell-based; conditions: time 48.0 hrs

SMILES: COc1cc(O[C@@H]2O[C@H](COC(=O)c3ccc(O)c(OC)c3)[C@@H](O[C@@H]3O[C@H](CO)[C@@H](O)[C@H](O)[C@H]3O)[C@H](O)[C@H]2O)ccc1O
- Activity (HepG2 [1]): Non-toxic
- Activity (HepG2 [2]): Dose-dependent-effect
- Activity (HepG2 [3]): Active; Significant Effect Observed
- Activity (HepG2 [4]): Active; Significant Effect Observed
- Activity (HepG2 [5]): Dose-dependent-effect; Significant Effect Observed
- inhibition (HepG2 [6]): Dose-dependent-effect; Significant Effect Observed
- viability at 25 µM (HepG2 [7]): 69.2%
- Activity (HepG2 [8]): 20.51%
- Activity (HepG2 [9]): 9.43%
- Activity (HepG2 [10]): 0.9%
- Activity (HepG2 [11]): Active
- Activity (HepG2 [12]): Active
- Activity (HepG2 [13]): Active
- Activity (HepG2 [14]): Active
- Activity (HepG2 [15]): Active

SMILES: CCCCO[C@H]1OC[C@](O)(COC(=O)c2ccc(O)c(OC)c2)[C@H]1O
- Activity (HepG2 [1]): Non-toxic
- Activity (HepG2 [2]): Dose-dependent-effect
- Activity (HepG2 [3]): Active; Significant Effect Observed
- Activity (HepG2 [4]): Active; Significant Effect Observed

SMILES: COc1cc(O[C@@H]2O[C@H](CO)[C@@H](O)[C@H](O)[C@H]2O[C@@H]2OC[C@](O)(COC(=O)c3ccc(O)c(OC)c3)[C@H]2O)ccc1O
- Activity (HepG2 [1]): Non-toxic
- Activity (HepG2 [2]): Dose-dependent-effect
- Activity (HepG2 [3]): Active; Significant Effect Observed
- Activity (HepG2 [4]): Active; Significant Effect Observed

SMILES: COc1cc(C(=O)OC[C@H]2O[C@@H](Oc3cc(OC)c(OC)c(OC)c3)[C@H](O)[C@@H](O)[C@@H]2O)ccc1O
- Activity (HepG2 [1]): Non-toxic
- Activity (HepG2 [2]): Dose-dependent-effect
- Activity (HepG2 [3]): Active; Significant Effect Observed
- Activity (HepG2 [4]): Active; Significant Effect Observed

SMILES: COc1cc([C@@H]2Oc3cc([C@H]4Oc5cc(O)cc(O)c5C(=O)[C@@H]4O)ccc3O[C@H]2CO)ccc1O
- Activity (HepG2 [16]): Active
- Activity (HepG2 [17]): Active

SMILES: COc1cc(O[C@@H]2O[C@H](COC(=O)c3cc(OC)c(O)c(OC)c3)[C@@H](O[C@@H]3O[C@H](CO)[C@@H](O)[C@H](O)[C@H]3O)[C@H](O)[C@H]2O)ccc1O
- Activity (HepG2 [1]): Non-toxic
- Activity (HepG2 [2]): Dose-dependent-effect
- Activity (HepG2 [3]): Active; Significant Effect Observed
- Activity (HepG2 [4]): Active; Significant Effect Observed

SMILES: COc1cc(CO)ccc1O[C@@H]1O[C@H](COC(=O)c2cc(OC)c(O)c(OC)c2)[C@@H](O[C@@H]2O[C@H](CO)[C@@H](O)[C@H](O)[C@H]2O)[C@H](O)[C@H]1O
- Activity (HepG2 [1]): Non-toxic
- Activity (HepG2 [2]): Dose-dependent-effect
- Activity (HepG2 [3]): Active; Significant Effect Observed
- Activity (HepG2 [4]): Active; Significant Effect Observed

SMILES: CCCCO[C@@H]1OC[C@](O)(COC(=O)c2ccc(O)c(OC)c2)[C@H]1O
- Activity (HepG2 [1]): Non-toxic
- Activity (HepG2 [2]): Dose-dependent-effect
- Activity (HepG2 [3]): Active; Significant Effect Observed
- Activity (HepG2 [4]): Active; Significant Effect Observed
